37 compounds from patent US9340577B2, “HLA binding motifs and peptides and their uses” (priority 1992, dated 2016) can be followed below.

Some targets named below: HLA-A*0201 (HLA-A2.1) (Homo sapiens, UniProt P04439, D140Y/D185E/D98H/E176V/E277Q/G131W/G231S/I119V/I121R/I166T/I218V/L300P/L318F/N151K/N90K/P208A/P217A/Q86G/Q94H/R138H/R169H/T345S); A*0202 (Homo sapiens, UniProt P04439, D140Y/D185E/D98H/E176V/E277Q/G131W/G231S/I119L/I121R/I166T/I218V/L180W/L300P/L318F/N151K/N90K/P208A/P217A/Q67R/Q86G/Q94H/R138H/R169H/T345S); A*0203 (Homo sapiens, UniProt P04439, A173T/D140Y/D185E/D98H/E277Q/G131W/G231S/I119V/I121R/I166T/I218V/L180W/L300P/L318F/N151K/N90K/P208A/P217A/Q86G/Q94H/R138H/R169H/T345S); A*0206 (Homo sapiens, UniProt P04439, D140Y/D185E/D98H/E176V/E277Q/F33Y/G131W/G231S/I119V/I121R/I166T/I218V/L300P/L318F/N151K/N90K/P208A/P217A/Q86G/Q94H/R138H/R169H/T345S); A*6802 (Homo sapiens, UniProt P04439, A269V/D140Y/D185E/E176V/E277Q/E87N/F33Y/G231S/I121R/I166T/I218V/L180W/L300P/L318F/N151K/P208A/P217A/Q86R/R138H/R169H/S129P/T345S/V36M).

Holding throughout (test): biochemical
Common to all, as to format: binding

No end group written: not given here.

As a reminder, the IC50 is the concentration at which inhibition is half-maximal. Read a high IC50 as weaker potency. As to EVQNTTYLWWV [Peptide 9013.0326], the IC50 was greater than 20000 nM at HLA-A*0201 (HLA-A2.1); greater than 20000 nM against A*0202; 19600 nM on A*0203; greater than 20000 nM at A*0206; 34 nM on A*6802.
Take RTLQQLLFV [Peptide 1525.15]: the IC50 at HLA-A*0201 (HLA-A2.1) is 120 nM; against A*0202, 1280 nM; at A*0203, 190 nM; on A*0206, 30 nM; on A*6802 it was greater than 20000 nM.
For GLFQQSTQEL [Peptide 9013.0176] the same measures were 1360 nM, 6.2 nM, 48 nM, greater than 20000 nM and greater than 20000 nM.
With QLHTQELFI [Peptide 9013.0079], the IC50 at HLA-A*0201 (HLA-A2.1) came out at 832 nM; on A*0202 it was 25 nM; against A*0203 it was 264 nM; on A*0206, 11700 nM; against A*6802, 19100 nM.
The corresponding values for YVSGANLNL [Peptide 9013.0100] are 6160 nM, 13 nM, 75 nM, 230 nM and 374 nM.
For FLQGSVICFV [Peptide 1578.05] the same measures were 41 nM, 3.5 nM, 9.1 nM, 73 nM and 380 nM.
Regarding FQFQNPFPL [Peptide 1578.40], the half-maximal inhibitory concentration (IC50) is 8.4 nM at HLA-A*0201 (HLA-A2.1); 0.75 nM on A*0202; 3.5 nM against A*0203; 6.3 nM against A*0206; 3160 nM on A*6802.
Consider TLELFISNI [Peptide 9013.0082], for which the IC50 against HLA-A*0201 (HLA-A2.1) was 2460 nM; against A*0202 it was 170 nM; against A*0203, 1700 nM; on A*0206, 3850 nM; against A*6802 it was 949 nM.
For QLSNGNRTLTL [Peptide 9013.0292] the same measures were greater than 20000 nM, 80 nM, 683 nM, greater than 20000 nM and greater than 20000 nM.
For TLELFIPNITV [Peptide 9013.0299] the same measures were 161 nM, 502 nM, 15800 nM, 2330 nM and 1040 nM.
For FIQGAVISFV [Peptide 1578.12] the same measures were 255 nM, 12 nM, 18 nM, 345 nM and 394 nM.
Take FLGALKSFV [Peptide 1593.56]: the IC50 against HLA-A*0201 (HLA-A2.1) was 93 nM; against A*0202, 1.1 nM; against A*0203 it was 1.1 nM; against A*0206, 79 nM; against A*6802, 822 nM.
Regarding SLNRSDPVT [Peptide 9013.0099], the IC50 was greater than 20000 nM against HLA-A*0201 (HLA-A2.1); 121 nM against A*0202; 2490 nM against A*0203; greater than 20000 nM against A*0206; greater than 20000 nM on A*6802.
RLTVTTITVYA [Peptide 9013.0305]: the IC50 on HLA-A*0201 (HLA-A2.1) came out at 243 nM; on A*0202, 23 nM; against A*0203, 205 nM; on A*0206, 1100 nM; against A*6802, 53 nM.
Consider IIYPNASLV [Peptide 9013.0029], for which the 50% inhibitory concentration (IC50) is 230 nM against HLA-A*0201 (HLA-A2.1); 24 nM against A*0202; 4 nM on A*0203; 152 nM on A*0206; 409 nM at A*6802.
The corresponding values for VQWAFDNEL [Peptide 86.0182] are 3230 nM, 319 nM, 449 nM, 256 nM and greater than 20000 nM.
For YLWWVNNQSV [Peptide 9013.0197] the same measures were 8.9 nM, 1.2 nM, 4.2 nM, 65 nM and 17 nM.
For NLAEGKEVL [Peptide 9013.0016] the same measures were 3840 nM, 14 nM, 293 nM, greater than 20000 nM and greater than 20000 nM.
As for FLQGAIISFV [Peptide 1578.27], the IC50 at HLA-A*0201 (HLA-A2.1) was 45 nM; on A*0202, 0.65 nM; against A*0203, 6.6 nM; at A*0206, 69 nM; on A*6802, 86 nM.
The corresponding values for RTLQLLLFV [Peptide 1525.25] are 4.7 nM, 371 nM, 468 nM, 11 nM and 3210 nM.
For QLHTQVLFIA [Peptide 9013.0242] the same measures were 3940 nM, 322 nM, 163 nM, greater than 20000 nM and greater than 20000 nM.
The corresponding values for TLFNVTRNDV [Peptide 9013.0230] are 1480 nM, 69 nM, 25 nM, 4840 nM and greater than 20000 nM.
As for YLYYRPGVNL [Peptide 9013.0209], the IC50 at HLA-A*0201 (HLA-A2.1) was determined as 54 nM; against A*0202 it was 2.2 nM; at A*0203 it was 2.8 nM; against A*0206, 940 nM; at A*6802, 953 nM.
Take TILQQLLFI [Peptide 1525.26]: the IC50 against HLA-A*0201 (HLA-A2.1) amounted to 95 nM; at A*0202 it was 2790 nM; on A*0203, 367 nM; against A*0206, 91 nM; against A*6802 it was 7030 nM.
For ALYWYRTGI [Peptide 86.0181] the same measures were 555 nM, 24 nM, 64 nM, 4640 nM and 4850 nM.
For FQKYKTLFV [Peptide 1578.54] the same measures were 1140 nM, 821 nM, 30 nM, 419 nM and greater than 20000 nM.
Take FLSHVKIPV [Peptide 1578.55]: the IC50 was 41 nM against HLA-A*0201 (HLA-A2.1); 4 nM on A*0202; 9.8 nM against A*0203; 91 nM against A*0206; 60 nM against A*6802.
For RLENAILFTA [Peptide 1578.51] the same measures were 2150 nM, 43 nM, 1770 nM, 4560 nM and greater than 20000 nM.
Regarding QQSTQELFV [Peptide 9013.0056], the IC50 on HLA-A*0201 (HLA-A2.1) is 1590 nM; at A*0202, 163 nM; against A*0203, 409 nM; against A*0206, 593 nM; at A*6802, greater than 20000 nM.
For YVIGTQQAV [Peptide 9013.0024] the same measures were 160 nM, 3.2 nM, 6.2 nM, 84 nM and 3 nM.
The corresponding values for GLSAGATVGV [Peptide 9013.0250] are 97 nM, 2.9 nM, 2.8 nM, 1100 nM and 1150 nM.
For QITPLCVTL [Peptide 1516.13] the same measures were 976 nM, 124 nM, 4390 nM, 634 nM and 2870 nM.
For AVAFTCEPEV [Peptide 9013.0155], the IC50 against HLA-A*0201 (HLA-A2.1) stood at 7860 nM; against A*0202 it was 233 nM; against A*0203 it was 54 nM; against A*0206, 199 nM; against A*6802, 13400 nM.
For GMIDDVTAI [Peptide 1578.44] the same measures were 23 nM, 5.3 nM, 7.3 nM, 37 nM and greater than 20000 nM.
With ALNTTYLWWV [Peptide 9013.0217], the IC50 against HLA-A*0201 (HLA-A2.1) came out at 223 nM; against A*0202, 48 nM; at A*0203, 5.6 nM; on A*0206, 578 nM; at A*6802 it was 7700 nM.
For `CC[C@H](C)[C@H](NC(=O)CNC(=O)[C@@H](NC(=O)[C@@H](NC(=O)[C@H](C)NC(=O)CN)[C@@H](C)O)C(C)C)C(=O)N[C@@H](CCSC)C(=O)N[C@H](C(=O)NCC(=O)N[C@H](C(=O)N[C@H](C(=O)O)C(C)C)C(C)C)[C@@H](C)CC` [Peptide 9013.0342], the IC50 was greater than 20000 nM against HLA-A*0201 (HLA-A2.1); 7520 nM on A*0202; 341 nM against A*0203; 4530 nM at A*0206; 671 nM at A*6802.
The corresponding values for TAKLTIESV [Peptide 9013.0009] are greater than 20000 nM, 480 nM, 216 nM, 10700 nM and 243 nM.
